The source of these data is patent US4349551A, “Penicillin derivatives and compositions containing them” (Beecham Group Limited, priority 1980, dated 1982).

Values after ≈ are worked out from the molar mass of the structure shown. Read-outs that look alike come from different tables or passages of the source.

What is called MIC is the smallest concentration in the dilution series that meets the test's criterion for growth inhibition.

Series [1] has as its system E. coli JT 425. The series can be described thus: MIC against E. coli JT 425. It counts as cell-based. The settings on record: Escherichia coli, JT425, Agar. The source says:
(§1) | MIC values (μg/ml) of the compounds of | Examples 1 and 2 against a number of | organisms important in human infections | Organism Agar Broth Agar Broth Agar

Series [2] concerns K. aerogenes A. The series can be described thus: MIC against K. aerogenes A. The format is cell-based. The settings on record: Klebsiella aerogenes.
Excerpt: as §1

Series [3] relates to E. coli NCTC 10413. The series can be described thus: MIC against E. coli NCTC 10413. It counts as cell-based. The settings on record: Escherichia coli.
Excerpt: as §1

For series [4], the system named is S. aureus Russell. The series can be described thus: MIC against S. aureus Russell. It counts as cell-based. Particulars: Staphylococcus aureus, Agar.
Excerpt: as §1

Series [5] has as its system E. coli JT 4. The series can be described thus: MIC against E. coli JT 4. Particulars: Escherichia coli, JT4, Agar. It counts as cell-based.
Excerpt: as §1

Series [6] concerns N. catarrhalis 1502. The series can be described thus: MIC against N. catarrhalis 1502. The format is cell-based. The settings on record: Agar.
Excerpt: as §1

For series [7], the system named is S. pyogenes ON 10. The series can be described thus: MIC against S. pyogenes ON 10. It counts as cell-based. The settings on record: Streptococcus pyogenes, ON10, Agar.
Excerpt: as §1

In series [8] the test system is P. mirabilis 889. The series can be described thus: MIC against P. mirabilis 889. The settings on record: Proteus mirabilis, Agar. It counts as cell-based.
Excerpt: as §1

Series [9] concerns P. mirabilis C 977. The series can be described thus: MIC against P. mirabilis C 977. The format is cell-based. Particulars: Proteus mirabilis, C977, Agar.
Excerpt: as §1

For series [10], the system named is Ps. aeruginosa NCTC 10662. The series can be described thus: MIC against Ps. aeruginosa NCTC 10662. Particulars: Agar. It counts as cell-based.
Excerpt: as §1

Series [11] relates to S. marcescens US 32. The series can be described thus: MIC against S. marcescens US 32. The format is cell-based. The settings on record: Serratia marcescens, US32, Agar.
Excerpt: as §1

For series [12], the system named is S. faecalis I. The series can be described thus: MIC against S. faecalis I. It counts as cell-based. The settings on record: Enterococcus faecalis, Agar.
Excerpt: as §1

Series [13] relates to B. subtilis. The series can be described thus: MIC against B. subtilis. The format is cell-based. Particulars: Bacillus subtilis, Agar.
Excerpt: as §1

Series [14] deals with Ps. aeruginosa Dalgleish. The series can be described thus: MIC against Ps. aeruginosa Dalgleish. Particulars: Pseudomonas aeruginosa; Agar; Ps. aeruginosa Dalgleish 10^-2. It counts as cell-based.
Excerpt: as §1

Series [15] deals with E. cloacae N1. The series can be described thus: MIC against E. cloacae N1. The format is cell-based. Particulars: Enterobacter cloacae, Agar.
Excerpt: as §1

Series [16] concerns S. aureus Oxford. The series can be described thus: MIC against S. aureus Oxford. It counts as cell-based. Particulars: Staphylococcus aureus, Agar.
Excerpt: as §1

In series [17] the test system is P. rettgeri. The series can be described thus: MIC against P. rettgeri. The format is cell-based. The settings on record: Providencia rettgeri, Agar.
Excerpt: as §1

Series [18] deals with P. morganii. The series can be described thus: MIC against P. morganii. The settings on record: Morganella morganii, Agar. It counts as cell-based.
Excerpt: as §1

Series [19] in a line: reconversion of the formyl ester to the parent 6-hydroxymethyl penicillin. It counts as physicochemical. The procedure:
The benzyl ester from the previous example (101 mg, 0.15 mmol) in THF (5 ml) was added to prehydrogenated 10% palladium on charcoal (100 mg) in THF (5 ml), water (1 ml). After shaking with hydrogen for 0.5 hours, the catalyst was filtered from the solution and washed well with N sodium bicarbonate solution (40 ml). The filtrate was washed with ethyl acetate (2×40 ml), acidified to pH 1.5 with 1 N-hydrochloric acid and extracted with ethyl acetate (3×40 ml). The combined extracts were washed with brine, dried and evaporated to give the title compound (46 mg, 51%), δ [(CD3)2 CO] 1.12, 1.35 (6H, 2s, 2 x CH3) 1.20 (3H, t, NCH2 CH3), 3.3-3.8 (4H, m, NCH2 and piperazine CH2), 3.8-4.3 (4H, m, CH2 O and piperazine CH2), 4.70 (1H, s, C3-proton), 5.57 (1H, s, C5 -proton), 5.72 (1H, d, J 6 Hz, α-proton) 7.45 (5H, m, aromatic protons), 8.25 (1H, s, CHO), 8.48 ( 1H, s, NH), 10.08 (1H, d, J 6 Hz, NH).

Where [20] appears, read: Ps. aeruginosa NCTC 10662 10^-2.
Where [21] appears, read: Pseudomonas aeruginosa, NCTC10662, Ps. aeruginosa NCTC 10662, read-out: MIC.

In the case of `CCN1CCN(C(=O)N[C@@H](C(=O)N[C@]2(CO)C(=O)N3[C@@H](C(=O)O)C(C)(C)S[C@@H]32)c2ccc(O)cc2)C(=O)C1=O` [Example 2, 6,α-Hydroxymethyl-6,β-[D,α'-(4-ethyl-2,3-dioxopiperazine-1-carbonylamino)-p-hydroxyphenylacetamido]penicillanic acid], the MIC was 50 µg/mL (≈ 88.7 µM) in series [1]; 2.5 µg/mL (≈ 4.44 µM) in series [2] (Agar); 1 µg/mL (≈ 1.77 µM) in [2] (Broth); 5 µg/mL (≈ 8.87 µM) in [3] (NCTC10413, Agar); 5 µg/mL (≈ 8.87 µM) in series [3] (NCTC10413, Broth); more than 100 µg/mL in series [4]. Further, the MIC was 100 µg/mL (≈ 177 µM) in series [5]; 1 µg/mL (≈ 1.77 µM) in series [6]; 2.5 µg/mL (≈ 4.44 µM) in series [7]; 2.5 µg/mL (≈ 4.44 µM) in series [8]; 2.5 µg/mL (≈ 4.44 µM) in [9]; more than 100 µg/mL in series [10] (setting [20]). Moreover, the MIC is more than 100 µg/mL in series [10] (setting [21]); 5 µg/mL (≈ 8.87 µM) in series [11]; more than 100 µg/mL in series [12]; more than 100 µg/mL in series [13]; more than 100 µg/mL in [14]; 5 µg/mL (≈ 8.87 µM) in [15]. The MIC was more than 100 µg/mL in series [16], 5 µg/mL (≈ 8.87 µM) in series [17] and 5 µg/mL (≈ 8.87 µM) in series [18].

Regarding `CCN1CCN(C(=O)N[C@@H](C(=O)N[C@]2(COC=O)C(=O)N3[C@@H](C(=O)O)C(C)(C)S[C@@H]32)c2ccccc2)C(=O)C1=O` [Example 4, 6,α-Formyloxymethyl-6,β-[D,α'-(4-ethyl-2,3-dioxopiperazine-1-carbonylamino)-phenylacetamido]penicillanic acid], the “reconversion to the 6-hydroxymethyl compound” value in series [19] (in the solvents used for h.p.l.c.) was “complete and instantaneous”. Further, the “parent 6-hydroxymethyl penicillin formed on preparation of the sodium salt” value in [19] (precipitation from acetone using 2 N sodium ethyl hexanoate in methyl isobutyl ketone) is “an appreciable amount”.

With `CCN1CCN(C(=O)N[C@@H](C(=O)N[C@]2(CO)C(=O)N3[C@@H](C(=O)O)C(C)(C)S[C@@H]32)c2ccccc2)C(=O)C1=O` [Example 1, 6,α-Hydroxymethyl-6,β-[D,α'-(4-ethyl-2,3-dioxopiperazine-1-carbonylamino)-phenylacetamido]penicillanic acid], the MIC in series [1] was 50 µg/mL (≈ 91.3 µM); in series [2] (Agar), 5 µg/mL (≈ 9.13 µM); in series [2] (Broth) it was 100 µg/mL (≈ 183 µM); in series [3] (NCTC10413, Agar), 25 µg/mL (≈ 45.7 µM); in series [3] (NCTC10413, Broth) it was 10 µg/mL (≈ 18.3 µM); in series [4] it was more than 100 µg/mL. Also, the MIC in series [5] was 100 µg/mL (≈ 183 µM); in series [6], 1 µg/mL (≈ 1.83 µM); in series [7], 25 µg/mL (≈ 45.7 µM); in series [8], 5 µg/mL (≈ 9.13 µM); in [9] it was 10 µg/mL (≈ 18.3 µM); in [10] (setting [20]) it was more than 100 µg/mL. Further, the MIC is more than 100 µg/mL in series [10] (setting [21]); 50 µg/mL (≈ 91.3 µM) in series [11]; more than 100 µg/mL in [12]; more than 100 µg/mL in series [13]; more than 100 µg/mL in series [14]; 25 µg/mL (≈ 45.7 µM) in series [15]. Also, the minimal inhibitory concentration (MIC) is more than 100 µg/mL in series [16], 50 µg/mL (≈ 91.3 µM) in series [17] and 25 µg/mL (≈ 45.7 µM) in series [18].

For the molecule `CCN1CCN(C(=O)NC(C(=O)N[C@]2(CO)C(=O)N3[C@@H](C(=O)O)C(C)(C)S[C@@H]32)c2csc(N)n2)C(=O)C1=O` (mixture of isomers) [Example 3, 6,α-Hydroxymethyl-6,β-[DL-α'-(4-ethyl-2,3-dioxopiperazine-1-carbonylamino)2-aminothiazole-4-acetamido]penicillanic acid], the minimum inhibitory concentration (MIC) in [1] is 100 µg/mL; in series [2] (Agar), 1 µg/mL; in series [3] (NCTC10413, Agar), 10 µg/mL; in series [4], more than 100 µg/mL; in series [5], more than 100 µg/mL; in series [7], more than 100 µg/mL. Besides, the MIC in series [8] was 10 µg/mL; in series [9] it was 10 µg/mL; in [10] (setting [20]), more than 100 µg/mL; in series [10] (setting [21]) it was more than 100 µg/mL; in series [11], 50 µg/mL; in series [12], 100 µg/mL. In addition, the MIC in series [13] was more than 100 µg/mL; in [15] it was 25 µg/mL; in series [16] it was more than 100 µg/mL; in series [17], 25 µg/mL; in series [18] it was 10 µg/mL.
